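Following 48 hours of exposure in 96-well plates, responses at five concentrations were used to interpolate endpoints linearly. GI50 marks 50% less growth. Definition used: TGI = concentration required for complete inhibition of growth.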 A value given as a limit tells only on which side of the number the result lay.

For ten compounds, GI50 and TGI results are on record in PubChem BioAssay (NCI).

Some test systems named below: OVCAR-4 ovarian; COLO 205 colon; MCF7 breast; KM12 colon; SF-295 CNS; SK-MEL-28 melanoma; SF-539 CNS; OVCAR-5 ovarian; CCRF-CEM leukemia; T-47D breast.
Assay in all cases: inhibition of tumour cell growth, NCI panel, 48 h

Regarding `N#Cc1c(SCc2ccccc2)nc2[nH]c(=S)[nH]c(=S)c2c1-c1ccco1`, the GI50 is above 100 µM with OVCAR-4 ovarian; 41.2 µM in the experiment on COLO 205 colon; 28.4 µM in the experiment on MCF7 breast; 60.3 µM in the experiment with KM12 colon; 43.5 µM with SF-295 CNS; above 100 µM in the experiment on SK-MEL-28 melanoma. Moreover, the GI50 in the experiment with SF-539 CNS is 31.7 µM; in the experiment on OVCAR-5 ovarian, 66.4 µM. Moreover, the TGI in the experiment with OVCAR-4 ovarian, with COLO 205 colon, in the experiment with MCF7 breast, with KM12 colon, in the experiment on SF-295 CNS and with SK-MEL-28 melanoma was above 100 µM each time. The TGI in the experiment on SF-539 CNS and in the experiment with OVCAR-5 ovarian was above 100 µM in each case.

In the case of `CC1(C)OC(=O)C=C(O)O1.CC1(C)OC(=O)C=C(O)O1.CCO.Oc1ccc2c(c1)CCC2.[Ti]`, the GI50 in the experiment with OVCAR-4 ovarian, with CCRF-CEM leukemia, in the experiment with COLO 205 colon, in the experiment with KM12 colon, in the experiment with SF-295 CNS and in the experiment with SK-MEL-28 melanoma was above 100 µM throughout. Moreover, the GI50 in the experiment on SF-539 CNS and in the experiment on OVCAR-5 ovarian was above 100 µM in each case. Further, the TGI in the experiment on OVCAR-4 ovarian, in the experiment with CCRF-CEM leukemia, in the experiment on COLO 205 colon, with KM12 colon, in the experiment on SF-295 CNS and in the experiment on SK-MEL-28 melanoma was above 100 µM in each case. The TGI in the experiment with SF-539 CNS and in the experiment on OVCAR-5 ovarian was above 100 µM in each case.

Take `NC(=S)N/N=C1\C(=O)N(c2cccc([N+](=O)[O-])c2)C(=O)C1C(=O)Nc1cccc([N+](=O)[O-])c1` (stereo not given): the TGI with OVCAR-4 ovarian, with CCRF-CEM leukemia, in the experiment with COLO 205 colon, in the experiment on SF-295 CNS, in the experiment with SK-MEL-28 melanoma and in the experiment on SF-539 CNS was above 100 µM throughout. In addition, the TGI in the experiment with OVCAR-5 ovarian is above 100 µM.

In the case of `C/C=C/C/C=C/CCC(=O)C1OC1C(N)=O` (stereo not given), the TGI with OVCAR-4 ovarian was determined as 23.8 µM; in the experiment with CCRF-CEM leukemia, 98.3 µM; with COLO 205 colon, 33.5 µM; in the experiment with MCF7 breast, 30.6 µM; with KM12 colon it was 29.5 µM; in the experiment on SF-295 CNS it was 30 µM. Further, the TGI with SK-MEL-28 melanoma was found to be 30.6 µM; in the experiment on SF-539 CNS, 30.6 µM; with OVCAR-5 ovarian, 32.8 µM.

On to `CCCN1C(=O)/C(=C/c2ccc(O)cc2)SC1=Nc1ccccc1`, for which the GI50 in the experiment with OVCAR-4 ovarian is 25.2 µM; in the experiment with T-47D breast it was 22.5 µM; in the experiment on CCRF-CEM leukemia, above 100 µM; with COLO 205 colon it was 22.7 µM; with KM12 colon, 19.9 µM; with SF-295 CNS it was 27.9 µM. Also, the GI50 in the experiment on SK-MEL-28 melanoma is 27.7 µM; in the experiment with OVCAR-5 ovarian, 21.7 µM. In addition, the TGI was 49.5 µM with OVCAR-4 ovarian; 50.8 µM in the experiment with T-47D breast; above 100 µM in the experiment with CCRF-CEM leukemia; 51.3 µM with COLO 205 colon; 55.3 µM in the experiment with KM12 colon; 68.7 µM in the experiment on SF-295 CNS. Also, the results for the TGI in the experiment on SK-MEL-28 melanoma and in the experiment with OVCAR-5 ovarian were 50.9 µM and 44.2 µM, respectively.

In the case of `N#C/C(=C\c1ccc(Br)cc1)n1nnc2cc(F)c(F)cc21`, the GI50 in the experiment with OVCAR-4 ovarian is 1.95 µM; with T-47D breast it was 1.27 µM; in the experiment on CCRF-CEM leukemia, 1.48 µM; in the experiment with COLO 205 colon it was 1.99 µM; with KM12 colon, 1.78 µM; in the experiment on SF-295 CNS it was 1.58 µM. Further, the values for the GI50 in the experiment with SK-MEL-28 melanoma, with SF-539 CNS and in the experiment with OVCAR-5 ovarian were 1.84 µM, 1.86 µM and 1.85 µM, respectively. Further, the TGI in the experiment on OVCAR-4 ovarian came to 6.09 µM; with T-47D breast, 4.08 µM; in the experiment on CCRF-CEM leukemia it was 8.81 µM; with COLO 205 colon, 4.04 µM; in the experiment on KM12 colon, 3.74 µM; in the experiment on SF-295 CNS it was 3.27 µM. The TGI in the experiment with SK-MEL-28 melanoma worked out at 3.63 µM; in the experiment with SF-539 CNS it was 3.39 µM; in the experiment on OVCAR-5 ovarian, 3.57 µM.

Take `O=C1C(Br)=C(c2ccccc2)C(c2ccccc2)=C1c1ccccc1`: the TGI with OVCAR-4 ovarian came to 4.98 µM; in the experiment on CCRF-CEM leukemia, 2.02 µM; in the experiment on COLO 205 colon, 3.69 µM; in the experiment with MCF7 breast, 7.68 µM; in the experiment on KM12 colon it was 18.5 µM; with SF-295 CNS, 23.5 µM. For the same compound, the TGI stood at 6.75 µM in the experiment on SK-MEL-28 melanoma, 8.07 µM with SF-539 CNS and 25.5 µM in the experiment on OVCAR-5 ovarian.

For the compound `CC1CC(C)C(=O)C(C(=O)CC2CC(=O)NC2=O)C1` (stereo not given), the TGI in the experiment with OVCAR-4 ovarian, in the experiment on CCRF-CEM leukemia, with COLO 205 colon, in the experiment on KM12 colon, in the experiment on SF-295 CNS and in the experiment with SK-MEL-28 melanoma was above 100 µM in each case. In addition, the TGI in the experiment with SF-539 CNS and with OVCAR-5 ovarian was above 100 µM in each case.

As for `C=C1C(=O)O[C@H]2[C@H]1CC/C(COC(=O)N[C@@H](Cc1c[nH]c3ccccc13)C(=O)OC)=C\CC[C@@]1(C)O[C@@H]21`, the GI50 is 2.03 µM in the experiment with OVCAR-4 ovarian; 1.84 µM in the experiment with T-47D breast; 0.621 µM in the experiment on CCRF-CEM leukemia; 1.73 µM in the experiment with COLO 205 colon; 4.11 µM in the experiment with KM12 colon; 9.4 µM in the experiment on SF-295 CNS. Moreover, the GI50 with SK-MEL-28 melanoma is 1.66 µM; in the experiment with SF-539 CNS, 1.45 µM; in the experiment with OVCAR-5 ovarian, 2.02 µM. In addition, the TGI came to 5.62 µM in the experiment on OVCAR-4 ovarian; 4.39 µM in the experiment with T-47D breast; 3.18 µM in the experiment on CCRF-CEM leukemia; 3.4 µM with COLO 205 colon; 15.6 µM in the experiment with KM12 colon; 21.6 µM in the experiment with SF-295 CNS. Also, the TGI in the experiment on SK-MEL-28 melanoma turned out to be 3.53 µM; in the experiment on SF-539 CNS, 2.92 µM; with OVCAR-5 ovarian it was 4.92 µM.

Take `CC(=O)Oc1cc2c(=O)oc3c(OC(C)=O)c(OC(C)=O)c(OC(C)=O)c4c(=O)oc(c1OC(C)=O)c2c34`: the TGI is above 100 µM in the experiment with OVCAR-4 ovarian; 63.3 µM with CCRF-CEM leukemia; above 100 µM with COLO 205 colon; above 100 µM in the experiment with KM12 colon; 52.9 µM with SF-295 CNS; above 100 µM with SK-MEL-28 melanoma. Further, the TGI was 75.5 µM in the experiment on SF-539 CNS and above 100 µM in the experiment with OVCAR-5 ovarian.
